Experimental data taken from ChEMBL document CHEMBL5113455, “Discovery of benzyloxyphenyl- and phenethylphenyl-imidazole derivatives as a new class of ante-drug type boosters” (Bioorg Med Chem Lett, 2022).

Tested on: CYP3A4
Experiment: in vitro
Conditions: rat, microsomes

SMILES | inhibition at 10 min, 10 µM [%]
CC(=O)N1CCN(c2ccc(OCC3COC(Cn4ccnc4)(c4ccc(Cl)cc4Cl)O3)cc2)CC1 (centres undefined) [KETOCONAZOLE] | 94.4

Same assay, conditions: rat, rat liver microsomes, probe midazolam

inhibition at 10 min, 10 µM [%] | SMILES
80.8 | Nn1nnc2ccccc21
42.6 | CCCOC(=O)c1ccc(COc2ccc(-n3ccnc3)cc2)cc1
82.8 | COC(=O)c1ccc(CCc2ccc(-n3ccnc3)cc2)cc1
15.5 | O=C(O)c1ccc(CCc2ccc(-n3ccnc3)cc2)cc1
6.7 | OCCOc1ccc(-n2ccnc2)cc1
34.7 | CC(=O)OCCOc1ccc(-n2ccnc2)cc1
10.4 | O=C(OCC(F)(F)F)c1ccc(COc2ccc(-n3ccnc3)cc2)cc1
90.4 | CCCOC(=O)c1ccc(CCc2ccc(-n3ccnc3)cc2)cc1
72 | COC(=O)c1ccc(COc2ccc(-n3ccnc3)cc2)cc1
88.1 | N#Cc1ccc(COc2ccc(-n3ccnc3)cc2)cc1
15.5 | O=C(O)c1ccc(COc2ccc(-n3ccnc3)cc2)cc1
12.7 | CCOC(=O)COc1ccc(-n2ccnc2)cc1
58.4 | CCC(C)COC(=O)c1ccc(COc2ccc(-n3ccnc3)cc2)cc1 (centres undefined)
74 | CCOC(=O)c1ccc(CCc2ccc(-n3ccnc3)cc2)cc1
87.1 | CC(=O)OCc1ccc(COc2ccc(-n3ccnc3)cc2)cc1
72.2 | CCCCCCOC(=O)c1ccc(COc2ccc(-n3ccnc3)cc2)cc1
61.8 | O=C(OCCc1ccccc1)c1ccc(COc2ccc(-n3ccnc3)cc2)cc1
39.9 | CCCCOC(=O)c1ccc(COc2ccc(-n3ccnc3)cc2)cc1
15.6 | O=C(Oc1ccc(-n2ccnc2)cc1)c1ccc(C(F)(F)F)cc1
84.7 | OCc1ccc(COc2ccc(-n3ccnc3)cc2)cc1
82.5 | c1ccc(COc2ccc(-n3ccnc3)cc2)cc1
16.5 | O=C(Oc1ccc(-n2ccnc2)cc1)c1ccc(Cl)cc1

Tested on: not listed separately
Experiment: Drug metabolism in rat liver microsome assessed as metabolite 4-[(4-imidazol-1-ylphenoxy)methyl]benzoic acid formation at 10 uM and measured upto 30 mins by liquid chromatography-tandem mass spectrometry
Format: ADME
Conditions: microsomes, 0.5 h

Drug metabolism | SMILES
Metabolite_Detected | COC(=O)c1ccc(COc2ccc(-n3ccnc3)cc2)cc1
